Patent US8669228B2 (Indiana University Research and Technology Corporation, priority 2007, dated 2014)
Where no end group is shown, it is not given here.

Test: Glucagon solubility assay (UV absorbance of supernatant after pH adjustment)
Format: physicochemical
Conditions: for solubility relative to native glucagon: pH values of 5.5 and 7.0, after 60 hours at 25° C. (FIG. 3) or 24 hours at 25° C. then 24 hours at 4° C. (FIG. 4)

Row | solubility relative to native glucagon | Compound | Percent Soluble (pH 7)
1 | superior solubility | CSCC[C@H](NC(=O)[C@H](CC(C)C)NC(=O)[C@H](Cc1c[nH]c2ccccc12)NC(=O)[C@H](CCC(N)=O)NC(=O)[C@@H](NC(=O)[C@H](Cc1ccccc1)NC(=O)[C@H](CC(=O)O)NC(=O)[C@H](CCC(N)=O)NC(=O)[C@H](C)NC(=O)[C@H](CCCNC(=N)N)NC(=O)[C@H](CCCNC(=N)N)NC(=O)[C@H](CO)NC(=O)[C@H](CC(=O)O)NC(=O)[C@H](CC(C)C)NC(=O)[C@H](Cc1ccc(O)cc1)NC(=O)[C@H](CCCCN)NC(=O)[C@H](CO)NC(=O)[C@H](Cc1ccc(O)cc1)NC(=O)[C@H](CC(=O)O)NC(=O)[C@H](CO)NC(=O)[C@@H](NC(=O)[C@H](Cc1ccccc1)NC(=O)[C@@H](NC(=O)CNC(=O)[C@H](CCC(N)=O)NC(=O)[C@H](CO)NC(=O)[C@@H](N)Cc1c[nH]cn1)[C@@H](C)O)[C@@H](C)O)C(C)C)C(=O)N[C@@H](CC(=O)O)C(=O)N[C@@H](CCC(=O)O)C(=O)O [D28, E29] | 
2 |  | Glucagon, Cys17PEG5K: Glucagon Cys17 (1-29) reacted with methoxy poly(ethyleneglycol) maleimide avg. M.W. 5000 | 94%
3 | superior solubility | HSQGTFTSDYSKYLESRRAQDFVQWLMDT [D28, E15] | 
